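The compound was tested at five concentrations on cells cultured in 96-well plates, with a 48-hour exposure period. At the TGI there is no net growth.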
Legend:
Experiment in all cases: NCI tumour cell line growth inhibition, 48 h
[1] = system: ACHN renal
[2] = system: OVCAR-8 ovarian
[3] = system: HL-60(TB) leukemia
[4] = system: COLO 205 colon
[5] = system: HOP-62 NSCLC
[6] = system: SF-295 CNS
[7] = system: NCI-H522 lung
[8] = system: DU-145 prostate
[9] = system: SF-268 CNS
[10] = system: MDA-MB-231 breast
[11] = system: TK-10 renal
[12] = system: RXF 393 renal
[13] = system: UACC-62 melanoma
[14] = system: UACC-257 melanoma
[15] = system: MOLT-4 leukemia
[16] = system: BT-549 breast
[17] = system: MDA-N
[18] = system: IGROV1 ovarian
[19] = system: EKVX NSCLC
[20] = system: SK-OV-3 ovarian
[21] = system: HT29 colon
[22] = system: OVCAR-5 ovarian
[23] = system: M14 melanoma
[24] = system: SW-620 colon
[25] = system: HS 578T breast
[26] = system: U251 CNS
[27] = system: MCF7 breast
[28] = system: MDA-MB-435
[29] = system: HCT-15 colon
[30] = system: HOP-92 NSCLC
[31] = system: SK-MEL-28 melanoma
[32] = system: KM12 colon
[33] = system: SR leukemia
[34] = system: PC-3 prostate
[35] = system: T-47D breast
[36] = system: SF-539 CNS
[37] = system: CAKI-1 renal
[38] = system: HCT-116 colon
[39] = system: SK-MEL-2 melanoma
[40] = system: LOX IMVI melanoma
[41] = system: HCC-2998 colon
[42] = system: MALME-3M melanoma
[43] = system: NCI-H226 lung
[44] = system: SN12C renal
[45] = system: NCI-H460 lung
[46] = system: SNB-19 CNS
[47] = system: 786-0 renal
[48] = system: K-562 leukemia
[49] = system: UO-31 renal
[50] = system: NCI/ADR-RES ovarian
[51] = system: OVCAR-4 ovarian
[52] = system: SK-MEL-5 melanoma
[53] = system: RPMI-8226 leukemia
[54] = system: A549 NSCLC
[55] = system: CCRF-CEM leukemia
[56] = system: SNB-75 CNS
[57] = system: NCI-H23 lung
[58] = system: OVCAR-3 ovarian

## Cc1nc(-c2cc3ccccc3oc2=O)cs1
[1]
  TGI: > 100 µM
[2]
  TGI: > 100 µM
[3]
  TGI: > 100 µM
[4]
  TGI: > 100 µM
[5]
  TGI: 42 µM
[6]
  TGI: > 100 µM
[7]
  TGI: > 100 µM
[8]
  TGI: > 100 µM
[9]
  TGI: > 100 µM
[10]
  TGI: 72.6 µM
[11]
  TGI: > 100 µM
[12]
  TGI: > 100 µM
[13]
  TGI: > 100 µM
[14]
  TGI: > 100 µM
[15]
  TGI: > 100 µM
[16]
  TGI: 31 µM
[17]
  TGI: > 100 µM
[18]
  TGI: > 100 µM
[19]
  TGI: > 100 µM
[20]
  TGI: > 100 µM
[21]
  TGI: > 100 µM
[22]
  TGI: > 100 µM
[23]
  TGI: > 100 µM
[24]
  TGI: > 100 µM
[25]
  TGI: 65.8 µM
[26]
  TGI: > 100 µM
[27]
  TGI: > 100 µM
[28]
  TGI: > 100 µM
[29]
  TGI: > 100 µM
[30]
  TGI: 53.9 µM
[31]
  TGI: > 100 µM
[32]
  TGI: > 100 µM
[33]
  TGI: > 100 µM
[34]
  TGI: > 100 µM
[35]
  TGI: > 100 µM
[36]
  TGI: > 100 µM
[37]
  TGI: > 100 µM
[38]
  TGI: > 100 µM
[39]
  TGI: > 100 µM
[40]
  TGI: > 100 µM
[41]
  TGI: > 100 µM
[42]
  TGI: > 100 µM
[43]
  TGI: > 100 µM
[44]
  TGI: > 100 µM
[45]
  TGI: > 100 µM
[46]
  TGI: > 100 µM
[47]
  TGI: > 100 µM
[48]
  TGI: > 100 µM
[49]
  TGI: > 100 µM
[50]
  TGI: > 100 µM
[51]
  TGI: > 100 µM
[52]
  TGI: > 100 µM
[53]
  TGI: > 100 µM
[54]
  TGI: > 100 µM
[55]
  TGI: > 100 µM

## NC(=S)NC/C=C/Cl
[1]
  TGI: > 100 µM
[56]
  TGI: > 100 µM
[2]
  TGI: > 100 µM
[3]
  TGI: > 100 µM
[4]
  TGI: > 100 µM
[5]
  TGI: > 100 µM
[6]
  TGI: > 100 µM
[7]
  TGI: > 100 µM
[8]
  TGI: > 100 µM
[10]
  TGI: > 100 µM
[11]
  TGI: > 100 µM
[12]
  TGI: > 100 µM
[13]
  TGI: > 100 µM
[14]
  TGI: > 100 µM
[15]
  TGI: > 100 µM
[16]
  TGI: > 100 µM
[17]
  TGI: > 100 µM
[18]
  TGI: > 100 µM
[19]
  TGI: > 100 µM
[20]
  TGI: > 100 µM
[21]
  TGI: > 100 µM
[22]
  TGI: > 100 µM
[23]
  TGI: > 100 µM
[24]
  TGI: > 100 µM
[25]
  TGI: > 100 µM
[27]
  TGI: > 100 µM
[28]
  TGI: > 100 µM
[29]
  TGI: > 100 µM
[30]
  TGI: > 100 µM
[32]
  TGI: > 100 µM
[33]
  TGI: > 100 µM
[34]
  TGI: > 100 µM
[35]
  TGI: > 100 µM
[37]
  TGI: > 100 µM
[38]
  TGI: > 100 µM
[39]
  TGI: > 100 µM
[57]
  TGI: > 100 µM
[40]
  TGI: > 100 µM
[42]
  TGI: > 100 µM
[43]
  TGI: > 100 µM
[45]
  TGI: > 100 µM
[46]
  TGI: > 100 µM
[47]
  TGI: > 100 µM
[48]
  TGI: > 100 µM
[49]
  TGI: > 100 µM
[58]
  TGI: > 100 µM
[50]
  TGI: > 100 µM
[51]
  TGI: > 100 µM
[52]
  TGI: > 100 µM
[53]
  TGI: > 100 µM
[54]
  TGI: > 100 µM
[55]
  TGI: > 100 µM
